One series addresses T1, recombinant human MAO-A (Homo sapiens, UniProt P21397).
T1 construct: purchased Sigma-Aldrich
T1 sequence (P21397 1-527): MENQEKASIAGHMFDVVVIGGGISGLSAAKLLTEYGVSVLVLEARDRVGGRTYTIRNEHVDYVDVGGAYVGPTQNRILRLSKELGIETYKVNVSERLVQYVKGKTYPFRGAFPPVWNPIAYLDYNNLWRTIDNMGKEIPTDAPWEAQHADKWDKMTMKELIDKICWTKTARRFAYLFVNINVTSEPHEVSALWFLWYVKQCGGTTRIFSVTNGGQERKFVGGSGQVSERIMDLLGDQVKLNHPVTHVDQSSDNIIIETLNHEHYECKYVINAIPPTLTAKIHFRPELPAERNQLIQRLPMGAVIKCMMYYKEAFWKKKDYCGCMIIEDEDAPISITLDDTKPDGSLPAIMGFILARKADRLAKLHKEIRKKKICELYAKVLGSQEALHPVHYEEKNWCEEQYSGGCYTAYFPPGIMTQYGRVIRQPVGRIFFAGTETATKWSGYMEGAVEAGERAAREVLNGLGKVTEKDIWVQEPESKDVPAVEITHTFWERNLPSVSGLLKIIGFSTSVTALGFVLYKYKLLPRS
Nature of the series: Recombinant human MAO-A inhibition assay (kynuramine substrate). Format: biochemical. The note with it: kynuramine 0.06 mM, 15 min preincubation; for remaining activity at 10 µM: inhibitor 10 µM, read-out: Residual Activity (%) MAO-A (10 µM).

Series [1] deals with T2, MAO-B (Homo sapiens, UniProt P27338).
T2 sequence (P27338 1-520): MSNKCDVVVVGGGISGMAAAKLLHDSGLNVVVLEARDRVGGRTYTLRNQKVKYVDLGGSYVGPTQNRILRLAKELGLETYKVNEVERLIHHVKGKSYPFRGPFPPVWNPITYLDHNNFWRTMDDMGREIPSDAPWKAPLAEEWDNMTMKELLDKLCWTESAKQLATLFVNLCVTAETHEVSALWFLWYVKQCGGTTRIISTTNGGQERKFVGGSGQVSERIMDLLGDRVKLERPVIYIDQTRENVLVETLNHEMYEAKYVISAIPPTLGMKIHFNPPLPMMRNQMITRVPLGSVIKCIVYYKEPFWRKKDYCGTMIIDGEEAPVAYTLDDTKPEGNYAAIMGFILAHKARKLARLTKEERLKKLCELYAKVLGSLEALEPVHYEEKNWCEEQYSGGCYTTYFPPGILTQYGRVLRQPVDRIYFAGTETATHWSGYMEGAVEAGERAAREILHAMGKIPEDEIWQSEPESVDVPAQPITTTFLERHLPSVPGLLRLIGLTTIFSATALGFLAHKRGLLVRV
Nature of the series: Recombinant human MAO-B inhibition assay (benzylamine substrate). The following applies: for SI (IC50 of MAO-A/IC50 of MAO-B): selectivity index for MAO-B; for Times more potent on MAO-B than lazabemide: ratio of MAO-B potency versus reference reversible inhibitor lazabemide.
Experimental: Recombinant human MAO-A and MAO-B inhibitory activities of were continuously assayed as described previously [37], using kynuramine (0.06 mM) and benzylamine (0.3 mM), respectively. […] MAO-A and MAO-B inhibitory activities were measured after preincubating enzymes and inhibitors for 15 min. Enzymes and chemicals were obtained from Sigma-Aldrich (St. Louis, MO, USA).
(§2) Kinetic experiments were carried out at five substrate and three inhibitor concentrations [38].

Series [2] can be described thus: MTS cytotoxicity assay in L929 cells. Format: cell-based, mouse. The note with it: mouse, L929 cells (mouse fibroblast cell line), 48 h treatment. On the procedure: (§1) An MTS (5-(3-carboxymethoxyphenyl)-2-(4,5-dimethyl-thiazolyl)-3-(4-sulfophenyl)) tetrazolium assay was used to evaluate the cytotoxic activities of T3 and T6 by measuring formazan absorbance. MTS is converted to formazan by mitochondria in metabolically active cells via NAD(P)H-dependent dehydrogenase enzymes. L929 cells (a mouse fibroblast cell line) were used to evaluate the cytotoxicities. Briefly, cells (5 × 10^4 cells/well) were seeded into 96-well plates in DMEM containing 10% fetal bovine serum and 1% penicillin/streptomycin, and incubated for 24 h. After supernatants were removed, the cells were treated with the compounds dissolved in DMSO (at 1, 10, 20, 50, or 100 µM) in triplicate for 48 h at 37 °C in a 5% CO2 atmosphere. MTS reagent (Uptima, Interchim, Montluçon, France) was then added to each well and incubated for 3 h. Absorbances were measured at 490 nm using a microplate reader (BioTek, Winooski, VT, USA), and cell viabilities were calculated as percentage of untreated controls.
On the technique in general: Formazan colour is commonly taken as a measure of viable cells.

The next series deals with L929 cells. Nature of the series: MTS cytotoxicity assay in L929 cells. The following applies: 48 h. Format: cell-based, mouse. On the procedure:
as §1

Series [3] concerns the target T2, MAO-B. Nature of the series: Kinetics of MAO-B inhibition (Lineweaver-Burk and secondary plots). Format: biochemical. Set-up: purchased Sigma-Aldrich.
Experimental: as §2
The target of series [4] is T2, MAO-B. The series is described as follows: Reversibility of MAO-B inhibition by dialysis. Format: biochemical. Set-up: purchased Sigma-Aldrich. The following applies: for Relative MAO-B activity of dialyzed sample (AD) / Relative MAO-B activity of undialyzed sample (AU): 30 min preincubation, T3 0.080 µM, T6 0.020 µM, lazabemide 0.30 µM; for Relative MAO-B activity of dialyzed sample (AD): after dialysis; for Reversibility of MAO-B inhibition (recovery by dialysis): pargyline 0.060 µM. On the procedure: Reversibility studies were performed using a dialysis-based method.
The reversibilities of T3 and T6 inhibitions were investigated by dialysis after preincubating them with MAO-B for 30 min, as previously described. […] Reversibilities were determined using the relative activities of undialyzed (AU) and dialyzed (AD) samples [40].

“Also recorded” adds a separate entry of the source. Bounds are passed on as bounds.

Experimental for recombinant human MAO-A: Recombinant human MAO-A and MAO-B inhibitory activities of were continuously assayed as described previously [37], using kynuramine (0.06 mM) and benzylamine (0.3 mM), respectively. […] MAO-A and MAO-B inhibitory activities were measured after preincubating enzymes and inhibitors for 15 min.
The inhibitory activities of the twelve compounds against MAO-A and MAO-B were first investigated at an inhibitor concentration of 10 µM. For the compounds showing residual activities of <50%, IC50 values for MAO-A and MAO-B inhibitions were determined. Kinetic experiments were carried out at five substrate and three inhibitor concentrations [38].

As for `O=C(Cn1nc(N2CCN(c3ccccc3F)CC2)ccc1=O)NN=Cc1ccccc1` [Compound T1], the remaining activity at 10 µM on recombinant human MAO-A is 96.6 ± 1.2%. For the same compound, the half-inhibitory concentration (IC50) (as a rule, the point on the concentration scale where inhibition reaches its midpoint) on MAO-B [1] turned out to be 7680 ± 140 nM.
As to `Cc1ccc(C=NNC(=O)Cn2nc(N3CCN(c4ccccc4F)CC3)ccc2=O)cc1` [Compound T2], on recombinant human MAO-A, the remaining activity at 10 µM was 24.6 ± 2.86% and the IC50 was determined as 4.29 ± 0.12 µM. On MAO-B [1], the IC50 worked out at 100 ± 35 nM and the “SI (IC50 of MAO-A/IC50 of MAO-B)” value is 42.9.
Take `O=C(Cn1nc(N2CCN(c3ccccc3F)CC2)ccc1=O)NN=Cc1ccccc1Cl` [Compound T3]: at recombinant human MAO-A, the remaining activity at 10 µM worked out at 24.6 ± 0.97% and the IC50 was determined as 4.19 ± 0.27 µM. In series [2], this compound displayed an IC50 at 48 h of 27.1 µM. Also, in the series with L929 cells (1, 10, or 20 µM), the “Cytotoxic effect on L929 cells at 1, 10, or 20 µM” value is “no significant death”. Further, the “Cytotoxic effect on L929 cells at 50 and 100 µM” value with L929 cells (50 and 100 µM) was “complete cell death”. Moreover, the “Type of MAO-B inhibition” value at MAO-B [3] is “competitive inhibitors”. For the same compound, at MAO-B [4], the “Relative MAO-B activity of dialyzed sample (AD)” value was found to be 79.4%, the “Relative MAO-B activity of undialyzed sample (AU)” value stood at 22.2% and the “Reversibility of MAO-B inhibition (recovery by dialysis)” value was “reversibly inhibit MAO-B; also recorded: reversible”. Further, at MAO-B [1], the IC50 was determined as 39 ± 2.8 nM, the “Times more potent on MAO-B than lazabemide” value is listed as 3 and the “SI (IC50 of MAO-A/IC50 of MAO-B)” value amounted to 107.4.
With `O=C(Cn1nc(N2CCN(c3ccccc3F)CC2)ccc1=O)NN=Cc1ccc(Cl)cc1` [Compound T4], the remaining activity at 10 µM on recombinant human MAO-A is 75.2 ± 4.7%. Besides, the concentration for half-maximal inhibition (IC50) on MAO-B [1] came to 99 ± 6.9 nM.
For `O=C(Cn1nc(N2CCN(c3ccccc3F)CC2)ccc1=O)NN=Cc1ccc(Br)cc1` [Compound T5] the same measures were 84 ± 0.68% and 1680 ± 110 nM.
With `COc1ccccc1C=NNC(=O)Cn1nc(N2CCN(c3ccccc3F)CC2)ccc1=O` [Compound T6], at recombinant human MAO-A, the remaining activity at 10 µM stood at 20.7 ± 0.62% and the IC50 worked out at 1.57 ± 0.8 µM. The compound also showed an IC50 at 48 h in series [2] above 100 µM. Besides, the “Cytotoxic effect on L929 cells at any dose” value in the series with L929 cells (1, 10, 20, 50, or 100 µM) is recorded as “did not have a cytotoxic effect”. The “Type of MAO-B inhibition” value on MAO-B [3] was “competitive inhibitors”. Besides, at MAO-B [4], the “Relative MAO-B activity of dialyzed sample (AD)” value is on record as 79.0%, the “Relative MAO-B activity of undialyzed sample (AU)” value was found to be 36.9% and the “Reversibility of MAO-B inhibition (recovery by dialysis)” value is “reversibly inhibit MAO-B; also recorded: reversible”. At MAO-B [1], the IC50 was found to be 13 ± 1.6 nM, the “Times more potent on MAO-B than lazabemide” value is reported as 11 and the “SI (IC50 of MAO-A/IC50 of MAO-B)” value was 120.8. For the same compound, the “MAO-B potency relative to pargyline” value at MAO-B [1] (versus reference irreversible inhibitor pargyline) is “twice as potent”.
`CN(C)c1ccc(C=NNC(=O)Cn2nc(N3CCN(c4ccccc4F)CC3)ccc2=O)cc1` [Compound T7]: at recombinant human MAO-A, the remaining activity at 10 µM was found to be 25.4 ± 6.92% and the IC50 stood at 4.43 ± 0.29 µM. Also, the IC50 on MAO-B [1] came to 870 ± 56 nM.
As for `O=C(Cn1nc(N2CCN(c3ccccc3F)CC2)ccc1=O)NN=Cc1cccc(Br)c1` [Compound T8, 6-[4-(2-Fluorophenyl)piperazine-1-yl]-3(2H)-pyridazinone-2-acetyl-2-(3-bromobenzal)hydrazon], the melting point (as a rule, the temperature of the solid-liquid transition) lay in the range of 207 to 208 °C. Also, the remaining activity at 10 µM on recombinant human MAO-A was 73.3 ± 2.86%. At MAO-B [1], the IC50 is 2670 ± 51 nM.
Compound `O=C(Cn1nc(N2CCN(c3ccccc3F)CC2)ccc1=O)NN=Cc1ccccc1F` [Compound T9, 6-[4-(2-Fluorophenyl)piperazine-1-yl]-3(2H)-pyridazinone-2-acetyl-2-(2-fluorobenzal)hydrazon] showed a melting point of 225 to 226 °C. For the same compound, on recombinant human MAO-A, the remaining activity at 10 µM came to 35.2 ± 0.56% and the IC50 turned out to be 6.76 ± 0.46 µM. Further, at MAO-B [1], the half-maximal inhibitory concentration (IC50) was 200 ± 1.7 nM and the “SI (IC50 of MAO-A/IC50 of MAO-B)” value was 33.8.
For `O=C(Cn1nc(N2CCN(c3ccccc3F)CC2)ccc1=O)NN=Cc1ccc(F)cc1` [Compound T10, 6-[4-(2-Fluorophenyl)piperazine-1-yl]-3(2H)-pyridazinone-2-acetyl-2-(4-florobenzal)hydrazon] the same measures were 178 to 180 °C, 33.7 ± 4.7%, 7.35 ± 0.059 µM, 35300 ± 390 nM and 0.21.
`COc1ccc(C=NNC(=O)Cn2nc(N3CCN(c4ccccc4F)CC3)ccc2=O)cc1` [Compound T11, 6-[4-(2-Fluorophenyl)piperazine-1-yl]-3(2H)-pyridazinone-2-acetyl-2-(4-methoxybenzal)hydrazon] came in with a melting point of 148 to 150 °C. For the same compound, at recombinant human MAO-A, the remaining activity at 10 µM amounted to 70.4 ± 8.5%. For the same compound, the IC50 at MAO-B [1] came out at 6860 ± 370 nM.
As to `Cc1ccccc1C=NNC(=O)Cn1nc(N2CCN(c3ccccc3F)CC2)ccc1=O` [Compound T12, 6-[4-(2-Fluorophenyl)piperazine-1-yl]-3(2H)-pyridazinone-2-acetyl-2-(2-methylbenzal)hydrazon], the melting point fell in the range of 244 to 245 °C. On recombinant human MAO-A, the remaining activity at 10 µM was 61.8 ± 1.65%. Moreover, the IC50 at MAO-B [1] came out at 150 ± 21 nM.

The values are drawn from PMC7698448, “Design, Synthesis, and Biological Evaluation of Pyridazinones Containing the (2-Fluorophenyl) Piperazine Moiety as Selective MAO-B Inhibitors” (Molecules, 2020).
